Results from patent publication US20250255867A1 (Kadmon Corporation, LLC, priority 2022, published 2025).

Settings: Cohort 2 200 mg BID
Procedure: All responses were assessed by the investigators.
Reported Adverse Events. […] All-cause mortality data collected during the study were assessed for all enrolled participants. Disease progression related death was not reported as AE.
Number of Participants With Treatment-emergent Adverse Events (TEAEs), and Treatment-emergent Serious Adverse Events (TESAEs). […] TEAEs included both SAEs and non-SAEs. […] Analysis was performed on safety population which included all participants who received at least 1 dose of study medication.

SMILES: CC(C)NC(=O)COc1cccc(-c2nc(Nc3ccc4[nH]ncc4c3)c3ccccc3n2)c1 [Belumosudil, 2-{3-[4-(1H-indazol-5-ylamino)-2-quinazolinyl]phenoxy}-N-(propan-2-yl) acetamide]
- Conjunctivitis: Affected/At Risk (%): (6.25%)
- Constipation: # Events: 1
- Constipation: Affected/At Risk: 1/16
- Constipation: Affected/At Risk (%): (6.25%)
- Contrast media allergy: # Events: 2
- Contrast media allergy: Affected/At Risk: 2/16
- Contrast media allergy: Affected/At Risk (%): (12.5%)
- Contusion: # Events: 2
- Contusion: Affected/At Risk: 2/16
- Contusion: Affected/At Risk (%): (12.5%)
- Corneal abrasion: # Events: 0
- Corneal abrasion: Affected/At Risk: 0/16
- Corneal abrasion: Affected/At Risk (%): (0%)
- Corneal infection: # Events: 2
- Corneal infection: Affected/At Risk: 1/16
- Corneal infection: Affected/At Risk (%): (6.25%)
- Cough: # Events: 5
- Cough: Affected/At Risk: 4/16
- Cough: Affected/At Risk (%): (25%)
- Decreased appetite: # Events: 2
- Decreased appetite: Affected/At Risk: 2/16
- Decreased appetite: Affected/At Risk (%): (12.5%)
- Dehydration: # Events: 4
- Dehydration: Affected/At Risk: 3/16
- Dehydration: Affected/At Risk (%): (18.75%)
- Depression: # Events: 4
- Depression: Affected/At Risk: 4/16
- Depression: Affected/At Risk (%): (25%)
- Diarrhoea: # Events: 10
- Diarrhoea: Affected/At Risk: 5/16
- Diarrhoea: Affected/At Risk (%): (31.25%)
- Dizziness: # Events: 4
- Dizziness: Affected/At Risk: 1/16
- Dizziness: Affected/At Risk (%): (6.25%)
- Drug eruption: # Events: 1
- Drug eruption: Affected/At Risk: 1/16
- Drug eruption: Affected/At Risk (%): (6.25%)
- Dry eye: # Events: 4
- Dry eye: Affected/At Risk: 4/16
- Dry eye: Affected/At Risk (%): (25%)
- Dry skin: # Events: 0
- Dry skin: Affected/At Risk: 0/16
- Dry skin: Affected/At Risk (%): (0%)
- Dyspepsia: # Events: 2
- Dyspepsia: Affected/At Risk: 2/16
- Dyspepsia: Affected/At Risk (%): (12.5%)
- Dysphagia: # Events: 4
- Dysphagia: Affected/At Risk: 3/16
- Dysphagia: Affected/At Risk (%): (18.75%)
- Dyspnoea exertional: # Events: 0
- Dyspnoea exertional: Affected/At Risk: 0/16
- Dyspnoea exertional: Affected/At Risk (%): (0%)
- Dyspnoea: # Events: 7
- Dyspnoea: Affected/At Risk: 5/16
- Dyspnoea: Affected/At Risk (%): (31.25%)
- Embolism: # Events: 0
- Embolism: Affected/At Risk: 0/16
- Embolism: Affected/At Risk (%): (0%)
- Enamel anomaly: # Events: 1
- Enamel anomaly: Affected/At Risk: 1/16
- Enamel anomaly: Affected/At Risk (%): (6.25%)
- Epidural lipomatosis: # Events: 0
- Epidural lipomatosis: Affected/At Risk: 0/16
- Epidural lipomatosis: Affected/At Risk (%): (0%)
- Epstein-Barr virus infection: # Events: 0
- Epstein-Barr virus infection: Affected/At Risk: 0/16
- Epstein-Barr virus infection: Affected/At Risk (%): (0%)
- Erectile dysfunction: # Events: 0
- Erectile dysfunction: Affected/At Risk: 0/16
- Erectile dysfunction: Affected/At Risk (%): (0%)
- Eye irritation: # Events: 0
- Eye irritation: Affected/At Risk: 0/16
- Eye irritation: Affected/At Risk (%): (0%)
- Eye pain: # Events: 4
- Eye pain: Affected/At Risk: 2/16
- Eye pain: Affected/At Risk (%): (12.5%)
- Eye pruritus: # Events: 1
- Eye pruritus: Affected/At Risk: 1/16
- Eye pruritus: Affected/At Risk (%): (6.25%)
- Fall: # Events: 1
- Fall: Affected/At Risk: 1/16
- Fall: Affected/At Risk (%): (6.25%)
- Fatigue: # Events: 7
- Fatigue: Affected/At Risk: 3/16
- Fatigue: Affected/At Risk (%): (18.75%)
- Flatulence: # Events: 2
- Flatulence: Affected/At Risk: 1/16
- Flatulence: Affected/At Risk (%): (6.25%)
- Flushing: # Events: 1
- Flushing: Affected/At Risk: 1/16
- Flushing: Affected/At Risk (%): (6.25%)
- Fungal infection: # Events: 0
- Fungal infection: Affected/At Risk: 0/16
- Fungal infection: Affected/At Risk (%): (0%)
- Gamma-glutamyltransferase increased: # Events: 4
- Gamma-glutamyltransferase increased: Affected/At Risk: 4/16
- Gamma-glutamyltransferase increased: Affected/At Risk (%): (25%)
- Gastric ulcer: # Events: 1
- Gastric ulcer: Affected/At Risk: 1/16
- Gastric ulcer: Affected/At Risk (%): (6.25%)
- Gastrooesophageal reflux disease: # Events: 1
- Gastrooesophageal reflux disease: Affected/At Risk: 1/16
- Gastrooesophageal reflux disease: Affected/At Risk (%): (6.25%)
- Generalised oedema: # Events: 0
- Generalised oedema: Affected/At Risk: 0/16
- Generalised oedema: Affected/At Risk (%): (0%)
- Genital infection fungal: # Events: 1
- Genital infection fungal: Affected/At Risk: 1/16
- Genital infection fungal: Affected/At Risk (%): (6.25%)
- Glaucoma: # Events: 1
- Glaucoma: Affected/At Risk: 1/16
- Glaucoma: Affected/At Risk (%): (6.25%)
- Glucose urine present: # Events: 0
- Glucose urine present: Affected/At Risk: 0/16
- Glucose urine present: Affected/At Risk (%): (0%)
- Graft versus host disease in gastrointestinal tract: # Events: 0
- Graft versus host disease in gastrointestinal tract: Affected/At Risk: 0/16
- Graft versus host disease in gastrointestinal tract: Affected/At Risk (%): (0%)
- Gynaecomastia: # Events: 1
- Gynaecomastia: Affected/At Risk: 1/16
- Gynaecomastia: Affected/At Risk (%): (6.25%)
- Haematuria: # Events: 1
- Haematuria: Affected/At Risk: 1/16
- Haematuria: Affected/At Risk (%): (6.25%)
- Hair growth abnormal: # Events: 0
- Hair growth abnormal: Affected/At Risk: 0/16
- Hair growth abnormal: Affected/At Risk (%): (0%)
- Headache: # Events: 3
- Headache: Affected/At Risk: 3/16
- Headache: Affected/At Risk (%): (18.75%)
- Hodgkin's disease recurrent: # Events: 0
- Hodgkin's disease recurrent: Affected/At Risk: 0/16
- Hodgkin's disease recurrent: Affected/At Risk (%): (0%)
- Hordeolum: # Events: 0
- Hordeolum: Affected/At Risk: 0/16
- Hordeolum: Affected/At Risk (%): (0%)
- Hot flush: # Events: 0
- Hot flush: Affected/At Risk: 0/16
- Hot flush: Affected/At Risk (%): (0%)
- Hyperglycemia: # Events: 0
- Hyperglycemia: Affected/At Risk: 0/16
- Hyperglycemia: Affected/At Risk (%): (0%)
- Hyperhidrosis: # Events: 1
- Hyperhidrosis: Affected/At Risk: 1/16
- Hyperhidrosis: Affected/At Risk (%): (6.25%)
- Hyperkalaemia: # Events: 2
- Hyperkalaemia: Affected/At Risk: 2/16
- Hyperkalaemia: Affected/At Risk (%): (12.5%)
- Hypertension: # Events: 5
- Hypertension: Affected/At Risk: 2/16
- Hypertension: Affected/At Risk (%): (12.5%)
- Hyperthyroidism: # Events: 1
- Hyperthyroidism: Affected/At Risk: 1/16
- Hyperthyroidism: Affected/At Risk (%): (6.25%)
- Hypertriglyceridaemia: # Events: 1
- Hypertriglyceridaemia: Affected/At Risk: 1/16
- Hypertriglyceridaemia: Affected/At Risk (%): (6.25%)
- Hyperuricaemia: # Events: 2
- Hyperuricaemia: Affected/At Risk: 1/16
- Hyperuricaemia: Affected/At Risk (%): (6.25%)
- Hypoaesthesia: # Events: 0
- Hypoaesthesia: Affected/At Risk: 0/16
- Hypoaesthesia: Affected/At Risk (%): (0%)
- Hypocalcaemia: # Events: 4
- Hypocalcaemia: Affected/At Risk: 1/16
- Hypocalcaemia: Affected/At Risk (%): (6.25%)
- Hypogonadism: # Events: 0
- Hypogonadism: Affected/At Risk: 0/16
- Hypogonadism: Affected/At Risk (%): (0%)
- Hypokalaemia: # Events: 3
- Hypokalaemia: Affected/At Risk: 2/16
- Hypokalaemia: Affected/At Risk (%): (12.5%)
- Hypomagnesaemia: # Events: 1
- Hypomagnesaemia: Affected/At Risk: 1/16
- Hypomagnesaemia: Affected/At Risk (%): (6.25%)
- Hyponatraemia: # Events: 0
- Hyponatraemia: Affected/At Risk: 0/16
- Hyponatraemia: Affected/At Risk (%): (0%)
- Hypophosphataemia: # Events: 1
- Hypophosphataemia: Affected/At Risk: 1/16
- Hypophosphataemia: Affected/At Risk (%): (6.25%)
- Hypothermia: # Events: 1
- Hypothermia: Affected/At Risk: 1/16
- Hypothermia: Affected/At Risk (%): (6.25%)
- Hypothyroidism: # Events: 2
- Hypothyroidism: Affected/At Risk: 1/16
- Hypothyroidism: Affected/At Risk (%): (6.25%)
- Hypoxia: # Events: 5
- Hypoxia: Affected/At Risk: 2/16
- Hypoxia: Affected/At Risk (%): (12.5%)
- Impaired healing: # Events: 0
- Impaired healing: Affected/At Risk: 0/16
- Impaired healing: Affected/At Risk (%): (0%)
- Influenza like illness: # Events: 2
- Influenza like illness: Affected/At Risk: 1/16
- Influenza like illness: Affected/At Risk (%): (6.25%)
- Influenza: # Events: 2
- Influenza: Affected/At Risk: 1/16
- Influenza: Affected/At Risk (%): (6.25%)
- Insomnia: # Events: 0
- Insomnia: Affected/At Risk: 0/16
- Insomnia: Affected/At Risk (%): (0%)
- Irritability: # Events: 0
- Irritability: Affected/At Risk: 0/16
- Irritability: Affected/At Risk (%): (0%)
- Joint range of motion decreased: # Events: 1
- Joint range of motion decreased: Affected/At Risk: 1/16
- Joint range of motion decreased: Affected/At Risk (%): (6.25%)
- Lacrimation increased: # Events: 1
- Lacrimation increased: Affected/At Risk: 1/16
- Lacrimation increased: Affected/At Risk (%): (6.25%)
- Leukaemia recurrent: # Events: 0
- Leukaemia recurrent: Affected/At Risk: 0/16
- Leukaemia recurrent: Affected/At Risk (%): (0%)
- Leukocytosis: # Events: 0
- Leukocytosis: Affected/At Risk: 0/16
- Leukocytosis: Affected/At Risk (%): (0%)
- Ligament sprain: # Events: 0
- Ligament sprain: Affected/At Risk: 0/16
- Ligament sprain: Affected/At Risk (%): (0%)
- Limb injury: # Events: 0
- Limb injury: Affected/At Risk: 0/16
- Limb injury: Affected/At Risk (%): (0%)
- Macular degeneration: # Events: 1
- Macular degeneration: Affected/At Risk: 1/16
- Macular degeneration: Affected/At Risk (%): (6.25%)
- Migraine: # Events: 1
- Migraine: Affected/At Risk: 1/16
- Migraine: Affected/At Risk (%): (6.25%)
- Muscle spasms: # Events: 0
- Muscle spasms: Affected/At Risk: 0/16
- Muscle spasms: Affected/At Risk (%): (0%)
- Muscle spasticity: # Events: 0
- Muscle spasticity: Affected/At Risk: 0/16
- Muscle spasticity: Affected/At Risk (%): (0%)
- Muscular weakness: # Events: 1
- Muscular weakness: Affected/At Risk: 1/16
- Muscular weakness: Affected/At Risk (%): (6.25%)
- Musculoskeletal chest pain: # Events: 0
- Musculoskeletal chest pain: Affected/At Risk: 0/16
- Musculoskeletal chest pain: Affected/At Risk (%): (0%)
- Myalgia: # Events: 1
- Myalgia: Affected/At Risk: 1/16
- Myalgia: Affected/At Risk (%): (6.25%)
- Nail disorder: # Events: 0
- Nail disorder: Affected/At Risk: 0/16
- Nail disorder: Affected/At Risk (%): (0%)
- Nausea: # Events: 6
- Nausea: Affected/At Risk: 4/16
- Nausea: Affected/At Risk (%): (25%)
- Neck pain: # Events: 0
- Neck pain: Affected/At Risk: 0/16
- Neck pain: Affected/At Risk (%): (0%)
- Nephrotic syndrome: # Events: 1
- Nephrotic syndrome: Affected/At Risk: 1/16
- Nephrotic syndrome: Affected/At Risk (%): (6.25%)
- Neuropathy peripheral: # Events: 1
- Neuropathy peripheral: Affected/At Risk: 1/16
- Neuropathy peripheral: Affected/At Risk (%): (6.25%)
- Neutrophil count decreased: # Events: 0
- Neutrophil count decreased: Affected/At Risk: 0/16
- Neutrophil count decreased: Affected/At Risk (%): (0%)
- Nocturia: # Events: 0
- Nocturia: Affected/At Risk: 0/16
- Nocturia: Affected/At Risk (%): (0%)
- Non-cardiac chest pain: # Events: 3
- Non-cardiac chest pain: Affected/At Risk: 3/16
- Non-cardiac chest pain: Affected/At Risk (%): (18.75%)
- Obesity: # Events: 0
- Obesity: Affected/At Risk: 0/16
- Obesity: Affected/At Risk (%): (0%)
- Oedema peripheral: # Events: 5
- Oedema peripheral: Affected/At Risk: 4/16
- Oedema peripheral: Affected/At Risk (%): (25%)
